{"source": "patent US20220206013A1", "about": "“CYSTIC FIBROSIS URINE TEST” (Aarhus Universitet, priority 2019, published 2022)", "key": {"CFTR": {"target": "CFTR (Homo sapiens, UniProt P13569)", "sequence (P13569 whole entry)": "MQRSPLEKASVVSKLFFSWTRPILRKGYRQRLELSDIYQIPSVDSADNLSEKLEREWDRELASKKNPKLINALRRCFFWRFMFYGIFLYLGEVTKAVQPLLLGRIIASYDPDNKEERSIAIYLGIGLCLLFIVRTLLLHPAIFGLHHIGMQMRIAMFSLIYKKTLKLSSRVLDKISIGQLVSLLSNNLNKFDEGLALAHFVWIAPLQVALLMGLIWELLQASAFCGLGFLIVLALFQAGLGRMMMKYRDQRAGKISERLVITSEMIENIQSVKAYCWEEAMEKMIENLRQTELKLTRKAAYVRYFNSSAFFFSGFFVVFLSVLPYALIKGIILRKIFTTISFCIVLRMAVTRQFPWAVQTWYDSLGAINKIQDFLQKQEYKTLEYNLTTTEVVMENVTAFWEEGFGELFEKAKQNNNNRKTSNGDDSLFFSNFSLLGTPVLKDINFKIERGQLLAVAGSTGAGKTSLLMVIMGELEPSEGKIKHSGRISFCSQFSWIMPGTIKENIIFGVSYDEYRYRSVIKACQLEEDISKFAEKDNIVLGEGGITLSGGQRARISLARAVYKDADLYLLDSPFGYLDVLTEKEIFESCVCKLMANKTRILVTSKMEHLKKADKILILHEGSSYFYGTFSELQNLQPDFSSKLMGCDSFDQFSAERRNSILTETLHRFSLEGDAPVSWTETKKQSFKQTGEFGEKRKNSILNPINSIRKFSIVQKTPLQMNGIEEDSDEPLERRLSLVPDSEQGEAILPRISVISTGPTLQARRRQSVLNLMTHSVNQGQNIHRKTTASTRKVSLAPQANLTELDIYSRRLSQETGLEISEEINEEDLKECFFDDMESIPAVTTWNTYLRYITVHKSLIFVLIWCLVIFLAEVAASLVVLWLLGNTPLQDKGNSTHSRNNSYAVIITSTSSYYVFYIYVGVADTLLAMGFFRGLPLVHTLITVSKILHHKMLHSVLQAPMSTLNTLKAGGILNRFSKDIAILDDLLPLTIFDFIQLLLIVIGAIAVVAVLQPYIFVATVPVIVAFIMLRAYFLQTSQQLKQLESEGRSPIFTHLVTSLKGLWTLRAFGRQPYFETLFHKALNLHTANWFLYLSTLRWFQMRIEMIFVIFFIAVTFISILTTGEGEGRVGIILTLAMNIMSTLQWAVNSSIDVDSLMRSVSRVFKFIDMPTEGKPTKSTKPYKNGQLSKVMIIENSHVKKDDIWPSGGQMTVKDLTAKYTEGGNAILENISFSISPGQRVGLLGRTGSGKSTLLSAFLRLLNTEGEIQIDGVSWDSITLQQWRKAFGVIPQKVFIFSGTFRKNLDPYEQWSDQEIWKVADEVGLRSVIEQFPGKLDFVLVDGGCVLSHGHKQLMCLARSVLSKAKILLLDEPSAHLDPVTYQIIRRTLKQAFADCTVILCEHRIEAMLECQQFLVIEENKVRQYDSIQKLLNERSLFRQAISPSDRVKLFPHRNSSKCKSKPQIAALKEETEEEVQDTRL", "assay": "clinical", "protocol": "Twelve healthy adult volunteers aged 22 to 59 years of both genders were tested. The volunteers were healthy and without any known CFTR protein mutations.\nIn addition, the venous acid-base status was checked.\nThe subjects then drank 200 mL of tap water. In addition, the venous acid-base status was checked.\nThe subjects then drank 200 mL of tap water."}, "[1]": {"target": "CFTR (homozygote mutation ΔF508) (Homo sapiens, UniProt P13569, DEL508-508)", "sequence (P13569 with tags, fused parts or gaps DEL508-508)": "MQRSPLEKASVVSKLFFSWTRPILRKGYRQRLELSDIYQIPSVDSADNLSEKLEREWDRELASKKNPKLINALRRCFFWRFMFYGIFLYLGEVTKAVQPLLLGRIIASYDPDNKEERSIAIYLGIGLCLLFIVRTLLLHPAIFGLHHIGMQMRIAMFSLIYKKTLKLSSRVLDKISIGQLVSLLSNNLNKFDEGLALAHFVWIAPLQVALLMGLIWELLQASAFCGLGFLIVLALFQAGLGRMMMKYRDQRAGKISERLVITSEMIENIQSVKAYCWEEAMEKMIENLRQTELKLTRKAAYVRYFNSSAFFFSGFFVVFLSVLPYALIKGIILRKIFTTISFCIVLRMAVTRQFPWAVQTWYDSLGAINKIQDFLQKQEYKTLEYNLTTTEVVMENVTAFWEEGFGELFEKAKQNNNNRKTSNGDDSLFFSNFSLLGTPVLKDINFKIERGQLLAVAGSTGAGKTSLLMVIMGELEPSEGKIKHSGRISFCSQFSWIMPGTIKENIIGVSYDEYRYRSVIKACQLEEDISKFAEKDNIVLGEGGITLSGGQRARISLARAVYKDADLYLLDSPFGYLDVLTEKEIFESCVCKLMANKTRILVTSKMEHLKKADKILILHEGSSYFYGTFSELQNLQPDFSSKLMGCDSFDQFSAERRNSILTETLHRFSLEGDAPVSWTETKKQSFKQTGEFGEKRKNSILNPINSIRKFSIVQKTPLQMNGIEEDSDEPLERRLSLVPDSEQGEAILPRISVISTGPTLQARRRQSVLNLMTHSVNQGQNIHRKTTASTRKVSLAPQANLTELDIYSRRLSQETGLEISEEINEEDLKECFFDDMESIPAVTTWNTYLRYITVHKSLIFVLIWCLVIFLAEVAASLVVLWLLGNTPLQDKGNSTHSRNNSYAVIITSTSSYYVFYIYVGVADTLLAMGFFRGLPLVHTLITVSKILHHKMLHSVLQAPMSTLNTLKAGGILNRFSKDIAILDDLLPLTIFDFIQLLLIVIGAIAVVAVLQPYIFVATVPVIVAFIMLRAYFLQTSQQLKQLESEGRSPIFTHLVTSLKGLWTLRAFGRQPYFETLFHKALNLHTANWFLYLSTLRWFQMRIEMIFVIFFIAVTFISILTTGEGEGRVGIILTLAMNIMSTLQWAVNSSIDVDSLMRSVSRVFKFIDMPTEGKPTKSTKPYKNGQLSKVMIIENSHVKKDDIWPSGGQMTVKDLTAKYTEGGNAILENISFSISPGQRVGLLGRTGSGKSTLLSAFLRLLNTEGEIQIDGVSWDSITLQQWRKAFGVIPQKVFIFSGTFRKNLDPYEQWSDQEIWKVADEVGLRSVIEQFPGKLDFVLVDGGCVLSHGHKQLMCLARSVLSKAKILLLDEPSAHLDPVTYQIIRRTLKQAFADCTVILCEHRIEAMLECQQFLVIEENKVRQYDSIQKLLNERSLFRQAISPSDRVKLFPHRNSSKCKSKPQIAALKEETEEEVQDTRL", "assay": "CF urine test (oral bicarbonate gastric load) in adult CF patients, before and after CFTR modulator drug", "description": "After 1 hr. urine samples were collected and the participant drank 200 ml of tap water. One hour later, urine samples were collected again and the participant drank further 200 ml of tap water. After three hours from the baseline the final urine sample were collected and the participants drank another 200 ml of tap water.\nNine adult CF patients aged 19 to 45 of both genders with the homozygote mutation ΔF508 were signed up for this test.\nThree of the adult CF patients were treated with Orkambi® (400 mg lumacaftor/200 mg ivacaftor twice a day) for four weeks before testing the CF patients for a second time. These included patients of both genders between the age of 19 and 45.\nSix of the adult CF patients were treated with Symkevi® (100 mg tezacaftor and 150 mg ivacaftor in the morning and 150 mg ivacaftor in the evening) for four weeks before testing the CF patients for a second time. These included patients of both genders between the age of 20 and 40.\nFive ml of urine were given into a 250 ml glass flask.\nA two-tailed paired t-test was used to test for significance. A p-value≤0.5 was chosen to represent significance.\nAt t=1 hr, the subjects were to void the first sample. […] The subjects then drank 200 mL of tap water. In addition, the venous acid-base status was checked.\nAt t=2 hrs, the subjects were to void the second sample. […] The subjects then drank 200 mL of tap water.\nAt t=3 hrs, the subjects were to void the third sample. […] The subjects then drank 200 mL of tap water."}, "[2]": {"system": "CFTR wild type, CFTR knock out and pendrin knock-out mice", "details": "WT mice; gavage 60 μmoles NaHCO3/25 g bodyweight; cumulative sample after 3 hours", "description": "The experiments were performed in littermate mice bred from heterozygotes. Mice of both genders were used at an approximate age of 2 to 4 months.\nThe Pendrin KO mouse was produced by insertion of a neo-cassette replacing exon 8 in the Scl26a4 gene, leading to loss of pendrin expression as described in (Everett et al. 2001). It was purchased from The Jackson Laboratory, JAX stock #018424.\nThe global CFTR (CFTRG) KO mouse (CFTR S489X-; FABP-hCFTR) was purchased from The Jackson Laboratory, JAX stock #002364. This is a transgenic global CFTR KO mouse strain with expression of human CFTR (hCFTR) under the promoter activity of rat fatty acid binding protein 2, intestinal (Fabp2) promoter, which corrects the otherwise lethal intestinal phenotype in CFTR KO mice (Zhou et al. 1994).\nAwake mice (animals as described under section A.) were manually restrained and a gavage needle was inserted into their stomach. […] Mice were then placed in metabolic cages and their urine collected for further measurement.\nUrine was sampled and accumulated for 3 hr before measurement."}, "[3]": {"system": "global CFTR WT and KO mice", "assay": "Secretin-induced urine alkalisation and urine HCO3− excretion in global CFTR WT/KO mice", "format": "in vivo, mouse", "protocol": "(§1) Induction of anaesthesia was performed with i.p. injection of […] of a ketamine-xylazine mix (10 mg/ml and 1 mg/ml). An i.v. access was obtained by cannulation of one tail vein and the animals were kept in anaesthesia by a continuous rate infusion (CRI) corresponding to half of the induction dose pr. hour. Mice were infused with a solution containing 145 mM NaCl at pH 7.4 with a perfusion rate of 0.1 ml h^−1 via a syringe pump (Model 33 Twin syringe pump, Harvard Apparatus, USA).\n(§2) Bladder catheterization was introduced and urine was collected every 5 minutes. Urinary pH was measured continuously throughout the experiment by placement of a micro pH electrode (pH-200, Unisense, Aarhus, DK) in the outflow of the catheter and the reference electrode was placed into the suprapubic operation wound (see FIG. 7A). Following a 30-min. control period, mice were injected intraperitoneally with either secretin (10 μg/25 g BW) or saline.\n(§3) The urine was collected and pooled for 30 minutes allowing measurement of mean [HCO3^−] in the time periods 0-30, 30-60 and 60-90 after starting the experiment. In experiments with too low urine output, urine was pooled to allow analysis of [HCO3^−] before and after secretin application. Measurements were performed by a Corning 960 analyser (Savory et al. 1978) and calibrated to small volume samples of 50 μl or alternatively by a custom built infrared CO2-sensor based system for smaller volume samples (Trepiccione et al. 2017) (10-40 μl).\n(§4) All values are presented as mean values ±standard error of mean (SEM). Due to a low number of observations in each series, n=7 in most, we were not able to determine whether the data followed a Gaussian distribution. Therefore, two-tailed Wilcoxon matched pairs signed rank test, in paired data, and two-tailed Mann-Whitney test, in unpaired data, were performed to test for significance."}, "[4]": {"system": "tubule specific CFTR (CFTR-TS) WT and KO mice", "assay": "Secretin-induced urine alkalisation and urine HCO3− excretion in tubule specific CFTR WT/KO mice", "format": "in vivo, mouse", "excerpt": "The Renal tubule specific CFTR (CFTRTS) KO mouse was produced in the laboratory of Dr. Kunzelmann and Dr. Schreiber in Regensburg/Germany and performed in compliance with the guidelines for the welfare of experimental animals issued by the Federal Government of Germany. C57BL6/J CFTR fl10 mice (Hodges et al. 2008) were bred in a C57Bl/6J background generated by the Cre/loxP-system with tissue specific Cre-recombinase expression from the Pax8 locus (Kos 2004; Bouchard et al. 2004).\nas §1, §2, §3, §4"}, "Pendrin WT and KO mice [5]": {"system": "Pendrin WT and KO mice", "assay": "Secretin-induced urine alkalisation and urine HCO3− excretion in anaesthetized pendrin WT/KO mice", "format": "in vivo, mouse"}, "Pendrin WT and KO mice [6]": {"system": "Pendrin WT and KO mice", "assay": "Secretin-induced urine alkalisation and urine HCO3− excretion in anaesthetized pendrin WT/KO mice", "format": "in vivo, mouse", "protocol": "as §1, §2, §3, §4", "remark": "listed apart in the source"}, "[7]": {"details": "both, human, in vivo, po, 79 mg/kg"}, "[8]": {"details": "6 CF patients, pre-symkevi, oral bicarbonate load"}}}
{"compound": "O=C(O)O", "note": "[bicarbonate, NaHCO3]", "values": [{"measurement": "Cmax", "setting": "CFTR; [7]", "value": "45000 to 65000", "unit": "µM"}, {"measurement": "Tmax", "setting": "CFTR; [7]", "value": 2, "unit": "h"}, {"measurement": "AUC0-3 of excreted bicarbonate", "setting": "CFTR; healthy controls, oral 79 mg/kg BW NaHCO3, FIG. 5E", "value": "85-123 mmol bicarbonate *t/L"}, {"measurement": "AUC0-3 of excreted bicarbonate", "setting": "[1]; [8]", "value": "22-45 mmol bicarbonate*t/L"}, {"measurement": "peak value of urine bicarbonate (t=2 hrs)", "setting": "[1]; [8]", "value": "11 to 28", "unit": "mM"}, {"measurement": "AUC0-3 of excreted bicarbonate", "setting": "[1]; CF patients before treatment with Orkambi, oral bicarbonate load", "value": "14-58 mmol bicarbonate *t/L"}, {"measurement": "Cmax", "setting": "[1]; [7]", "value": "14000 to 28000", "unit": "µM"}, {"measurement": "Tmax", "setting": "[1]; both, human, in vivo, po, 79 mg/kg BW", "value": 2, "unit": "h"}, {"measurement": "urine bicarbonate concentration and urine pH", "setting": "[2]", "value": "found to increase"}]}
{"compound": "secretin", "values": [{"measurement": "HCO3− excretion rate and urine [HCO3−] vs starting or control", "setting": "[3]; global CFTR KO mice, at any point during the experiment, FIG. 10D", "value": "No significant differences"}, {"measurement": "peak difference of pHu vs pH prior to treatment", "setting": "[3]; global CFTR KO mice, peak 20 min post secretin, n=7, not differing from vehicle treated KO mice", "value": 0.13, "unit": "pH units"}, {"measurement": "peak mean urinary alkalisation", "setting": "[3]; global CFTR WT mice, 10 μg/25 g BW i.p., n=6, FIG. 10A", "value": "0.53±0.24", "unit": "pH units"}, {"measurement": "urinary [HCO3−] increase vs control group (Δ30 minutes)", "setting": "[3]; global CFTR WT mice, FIG. 10C", "value": "3.02 ± 1.06", "unit": "mM"}, {"measurement": "ΔHCO3− excretion rate vs control", "setting": "[3]; global CFTR WT mice, after 60 min, not reaching significance (p=0.09)", "value": "5.55±3.25", "unit": "nmol/h/g BW"}, {"measurement": "pHu effect vs control experiments", "setting": "[4]; CFTR-TS KO mice, FIG. 11B", "value": "no significant effect"}, {"measurement": "urine [HCO3−] and urine HCO3− excretion rate", "setting": "[4]; CFTRTS KO mice", "value": "No significant secretin-induced differences"}, {"measurement": "peak mean urinary alkalisation", "setting": "[4]; tubule specific CFTR WT mice, 10 μg/25 g BW i.p., n=7, FIG. 11A", "value": "0.6518±0.11"}, {"measurement": "urine HCO3− excretion rate, mean difference vs baseline", "setting": "[4]; tubule specific CFTR WT mice, 60 minutes after secretin treatment, data not shown", "value": "5.623 ± 2.2", "unit": "nmol/h/kg"}, {"measurement": "urine [HCO3−] change after secretin administration", "setting": "[4]; tubule specific CFTR WT mice, highest in first 30 minutes", "value": "pronounced increase"}, {"measurement": "pHu change", "setting": "Pendrin WT and KO mice [5]; dose of 0.1 μg i.p.", "value": "significant increase"}, {"measurement": "pHu change with dose", "setting": "Pendrin WT and KO mice [5]; doses of 1, 5 and 10 μg i.p.", "value": "increasing pHu alkalisations"}, {"measurement": "pHu alkalisation", "setting": "Pendrin WT and KO mice [6]; pendrin KO mice, 10 μg/25 g BW i.p., FIG. 9B", "value": "no significant pHu alkalisations"}, {"measurement": "urinary HCO3− excretion vs vehicle", "setting": "Pendrin WT and KO mice [6]; pendrin KO mice, data not shown", "value": "No differences"}, {"measurement": "urinary [HCO3−] vs vehicle", "setting": "Pendrin WT and KO mice [6]; pendrin KO mice, n=7, FIG. 9D", "value": "No differences"}, {"measurement": "late pHu effect", "setting": "Pendrin WT and KO mice [6]; pendrin KO mice, starting some 20 minutes post-injection", "value": "urinary acidification"}, {"measurement": "peak mean urinary alkalisation", "setting": "Pendrin WT and KO mice [6]; pendrin WT mice, 10 μg/25 g BW i.p., n=7, FIG. 9A", "value": "0.397±0.1", "unit": "pH units"}, {"measurement": "peak pHu increase", "setting": "Pendrin WT and KO mice [6]; pendrin WT mice, 10 μg/25 g BW secretin i.p., FIG. 8C", "value": "~0.38", "unit": "units"}, {"measurement": "urinary [HCO3−]", "setting": "Pendrin WT and KO mice [6]; pendrin WT mice, 60 minutes following injection, vehicle 0.1697 ±0.1 mM, FIG. 9C", "value": "1.08 ± 0.3", "unit": "mM"}, {"measurement": "urine HCO3− excretion rate", "setting": "Pendrin WT and KO mice [6]; pendrin WT mice, 60 minutes post secretin injection, vehicle 1.18±0.57", "value": "5.61±2.06", "unit": "nmol/h/g BW"}]}
